{
  "source": "patent EP0906335B1",
  "about": "“EBV TYPE B CTL EPITOPES” (THE COUNCIL OF THE QUEENSLAND INSTITUTE OF MEDICAL RESEARCH, priority 1996, dated 2008)",
  "key": {"HLA": {"system": "HLA", "conditions": "Table 4, from the cited reference; cited from earlier work"}, "autologous PHA blasts": {"system": "autologous PHA blasts", "experiment": "CTL assay of type B specific culture B5 against overlapping EBNA-6B peptides (epitope mapping)", "format": "cell-based", "conditions": "peptides preincubated with autologous PHA blasts; Fig. 3a, 3b", "description": "Assessment of peptide specific activity.\nThe type B specific culture B5 recognised the peptide corresponding to EBNA-6B residues 210-229 (peptide 12 of the EBNA-6B set) when assayed against individual 20-mer overlapping peptides preincubated with autologous PHA blasts (Fig. 3a). […] The corresponding peptide from the type A overlapping sequence was not recognised by this culture, thus confirming the type B specificity of these T cells."}, "autologous PHA-blasts": {"system": "autologous PHA-blasts", "experiment": "CTL assay of culture A3 against overlapping EBNA-6B peptides (epitope mapping)", "conditions": "peptides on autologous PHA-blasts; Fig. 4a, 4b"}},
  "data": [
    {"substance": "CLGGLLTMV", "values": [
      {"measurement": "HLA Restriction", "setting": "HLA", "result": "HLA A2"}
    ]},
    {"substance": "DEPASTEPVHDQLL", "values": [
      {"measurement": "HLA Restriction", "setting": "HLA", "result": "HLA A11"}
    ]},
    {"substance": "DTPLIPLTIF", "values": [
      {"measurement": "HLA Restriction", "setting": "HLA", "result": "HLA B51/A2"}
    ]},
    {"substance": "EENLLDFVRF", "values": [
      {"measurement": "HLA Restriction", "setting": "HLA", "result": "HLA B44"}
    ]},
    {"substance": "FLRGRAYGL", "values": [
      {"measurement": "HLA Restriction", "setting": "HLA", "result": "HLA B8"}
    ]},
    {"substance": "KEHVIQNAF", "values": [
      {"measurement": "HLA Restriction", "setting": "HLA", "result": "HLA B44"}
    ]},
    {"substance": "LPGPQVTAVLLHEES", "values": [
      {"measurement": "HLA Restriction", "setting": "HLA", "result": "HLA A11"}
    ]},
    {"substance": "NPTQAPVIQLVHAVY", "values": [
      {"measurement": "HLA Restriction", "setting": "HLA", "result": "HLA A11"}
    ]},
    {"substance": "QPRAPIRPI", "values": [
      {"measurement": "HLA Restriction", "setting": "HLA", "result": "HLA B7"}
    ]},
    {"substance": "RLRAEAGVK", "values": [
      {"measurement": "HLA Restriction", "setting": "HLA", "result": "HLA A3"}
    ]},
    {"substance": "RPPIFIRRL", "values": [
      {"measurement": "HLA Restriction", "setting": "HLA", "result": "HLA B7"}
    ]},
    {"substance": "RRRWRRLTV", "values": [
      {"measurement": "HLA Restriction", "setting": "HLA", "result": "HLA B27"}
    ]},
    {"substance": "RYSIFFDY", "values": [
      {"measurement": "HLA Restriction", "setting": "HLA", "result": "HLA 24"}
    ]},
    {"substance": "SVRDRLARL", "values": [
      {"measurement": "HLA Restriction", "setting": "HLA", "result": "HLA A2"}
    ]},
    {"substance": "TSLYNLRRGTALA", "values": [
      {"measurement": "HLA Restriction", "setting": "HLA", "result": "HLA DR1"}
    ]},
    {"substance": "TVFYNIPPNIPL", "values": [
      {"measurement": "HLA Restriction", "setting": "HLA", "result": "HLA DQ2"}
    ]},
    {"substance": "VEITPYKPTW", "values": [
      {"measurement": "HLA Restriction", "setting": "HLA", "result": "HLA B44"}
    ]},
    {"substance": "VSFIEFVGW", "values": [
      {"measurement": "HLA Restriction", "setting": "HLA", "result": "HLA B57"}
    ]},
    {"substance": "peptide 12: 20-mer overlapping peptide corresponding to EBNA-6B residues 210-229", "values": [
      {"measurement": "recognition by type B specific culture B5", "setting": "autologous PHA blasts", "result": "recognised"}
    ]},
    {"substance": "peptide 19: 20-mer overlapping peptide of EBNA-6B, residues 280-299", "values": [
      {"measurement": "recognition by culture A3", "setting": "autologous PHA-blasts", "result": "reactive"}
    ]}
  ]
}
